Bounds are passed on as bounds.

As usually defined, the Ki is the dissociation constant of the complex between target and ligand, obtained from inhibition or displacement.

One experiment deals with T1, caspase 7 (Homo sapiens, UniProt P55210).
T1 sequence (P55210 24-198 limits assumed): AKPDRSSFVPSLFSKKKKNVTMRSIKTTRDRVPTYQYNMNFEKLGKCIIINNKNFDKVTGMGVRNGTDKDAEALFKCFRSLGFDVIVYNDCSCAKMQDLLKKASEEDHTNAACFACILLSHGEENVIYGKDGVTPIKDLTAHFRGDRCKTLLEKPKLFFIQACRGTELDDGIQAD
T1 sequence (P55210 207-303 limits assumed): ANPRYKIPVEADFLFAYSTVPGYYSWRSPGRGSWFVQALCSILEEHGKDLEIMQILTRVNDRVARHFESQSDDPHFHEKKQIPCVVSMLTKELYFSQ
The following applies: cited from earlier work.

For the next experiment, the target named is T2, caspase 3 (Homo sapiens, UniProt P42574).
T2 sequence (P42574 29-175 limits assumed): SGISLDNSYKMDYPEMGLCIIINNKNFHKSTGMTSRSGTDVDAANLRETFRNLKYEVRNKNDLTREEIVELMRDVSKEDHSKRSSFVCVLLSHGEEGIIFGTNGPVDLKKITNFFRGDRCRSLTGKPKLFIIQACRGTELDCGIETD
T2 sequence (P42574 176-277 limits assumed): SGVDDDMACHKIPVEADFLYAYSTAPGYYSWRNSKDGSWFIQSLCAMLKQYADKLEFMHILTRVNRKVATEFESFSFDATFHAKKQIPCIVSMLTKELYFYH
The following applies: cited from earlier work.

Another experiment addresses T3, caspase 1 (Homo sapiens, UniProt P29466).
T3 sequence (P29466 120-297 limits assumed): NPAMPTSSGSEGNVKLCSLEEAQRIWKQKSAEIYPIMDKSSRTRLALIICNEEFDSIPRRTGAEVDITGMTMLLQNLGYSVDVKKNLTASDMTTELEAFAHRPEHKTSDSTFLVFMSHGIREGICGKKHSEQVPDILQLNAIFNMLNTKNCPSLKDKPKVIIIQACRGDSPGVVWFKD
T3 sequence (P29466 317-404 limits assumed): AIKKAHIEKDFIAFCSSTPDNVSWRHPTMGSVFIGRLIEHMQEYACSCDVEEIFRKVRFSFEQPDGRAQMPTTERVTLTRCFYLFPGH
The note with it: cited from earlier work.

Another experiment addresses T4, caspase 4 (Homo sapiens, UniProt P49662).
T4 sequence (P49662 81-270 limits assumed): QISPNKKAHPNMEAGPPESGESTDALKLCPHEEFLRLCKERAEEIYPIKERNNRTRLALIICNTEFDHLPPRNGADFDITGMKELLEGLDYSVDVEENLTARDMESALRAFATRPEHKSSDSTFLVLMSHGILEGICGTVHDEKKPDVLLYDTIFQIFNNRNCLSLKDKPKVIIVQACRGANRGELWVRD
T4 sequence (P49662 290-377 limits assumed): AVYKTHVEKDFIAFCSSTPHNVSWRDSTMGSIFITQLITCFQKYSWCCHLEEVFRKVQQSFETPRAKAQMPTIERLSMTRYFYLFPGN
The note with it: cited from earlier work.

The test system of the next experiment is photoreceptor cells. Description: TUNEL staining of outer nuclear layer after experimental retinal detachment. The following applies: detached retina (left eye); 5 μl of 2 mM in DMSO subretinal; 72 hours after detachment; TUNEL-positive cells/100 cells in outer nuclear layer. The class given is in vivo, Brown Norway rats. Here is the method:
Briefly, the retinal detachments were created in the left eyes of three Brown Norway rats, as described in Example 2, section 2.1. The detachment was located on the temporal portion of the retina, and comprised approximately one third of the total retinal area.
A first rat received the retinal detachment only. A second rat received the retinal detachment and a caspase 9 inhibitor in DMSO. Briefly, immediately after the retina was detached, 5 μl of the zLEHD.fmk (2 mM solution in DMSO) (BioVision) was injected into the subretinal space of the detached retina using a Hamilton Syringe (Hamilton Corp, Reno, Nev.). A third rat received the retinal detachment and DMSO (solvent control). Briefly, 5 μl of DMSO was injected into the subretinal space of the detached retinas as a control for the solvent in which the zLEHD.fmk was dissolved.
The rats were allowed to recover from the surgery and were returned to their cages, as per standard animal care protocols. Seventy-two hours (3 days) after creation of the detachments, the eyes were enucleated and immersion-fixed in 4% paraformaldehyde solution for 24 hours. The fixed eyes were then embedded in paraffin and sectioned for histologic analysis. […]
The number of TUNEL-positive cells/100 cells in the outer nuclear layer were counted for 3 high power fields per section for 2 separate slides.

The next experiment has as its system caspase 9. Nature of the experiment: Caspase 9 activity (LEHD-pNA cleavage) in detached retina after injection of inhibitor at the time of detachment. The class given is in vivo, Brown-Norway rats. The following applies: 5 μl of 2 mM solution in DMSO into the subretinal space, 24 hours after retinal detachment, normalized to attached retina. Here is the method: Briefly, rats were anesthetized with a 50:50 mix of ketamine (100 mg/ml) and xylazine (20 mg/ml), and pupils were dilated with topical phenylephrine (2.5%) and tropicamide (1%). A sclerotomy was created approximately 2 mm posterior to the limbus with a 20-guage microvitreoretinal blade (Walcott Scientific, Marmora, N.J.), with special caution to not damage the lens. A Glaser subretinal injector (32-gauge tip; BD Ophthalmic Systems, Sarasota, Fla.) connected to a syringe filled with 10 mg/ml sodium hyaluronate (Healon®; Pharmacia and Upjohn Co., Kalamazoo, Mich.) was introduced through the sclerotomy into the vitreous cavity. The tip of the subretinal injector was introduced into the subretinal space through a peripheral retinotomy, and the sodium hyaluronate was slowly injected. The neurosensory retina was thus detached from the underlying retinal pigment epithelium. In all experiments, approximately one-third to one-half of the retina was detached. Detachments were made in the left eye, with the right eye serving as the control. […]
Caspase 9 activity was measured using a calorimetric tetrapeptide LEHD-pNA cleavage assay kit according to the manufacturer's instructions (BioVision, Mountain View, Calif.). […] Absorbance was measured at 405 nm in a microplate reader (SpectraMAX 190, Molecular Devices). […]

In the case of Ac-Tyr-Val-Ala-Asp-aldehyde, the inhibitory constant (Ki) at caspase 7 is not below 50 µM; on caspase 3 it was not below 50 µM; on caspase 1, 0.01 µM; on caspase 4 it was 0.01 µM.
As to “z-Leu-Glu-His-Asp-fluoromethylketone [zLEHD.fmk]”, the “% TUNEL positive cells” value in the experiment on photoreceptor cells came out at 4.6% TUNEL positive. Also, the “caspase 9 activity, % of the control level” value in the experiment with caspase 9 is “approximately 50%”.

The values above are taken from patent publication US7811832B2, “Methods for preserving the viability of photoreceptor cells by anti-FAS-ligand/anti-FAS-receptor antibodies” (Massachusetts Eye and Ear Infirmary, priority 2002, dated 2010).
